Results as given in patent US9504675B2, “Alpha-ketoheterocycles and methods of making and using” (The Scripps Research Institute, priority 2011, dated 2016).

Tests used:
[1] = test system: endogenous levels of FAAH substrates AEA, PEA, OEA and of 2-AG, AA; test: In vivo pharmacodynamic studies: brain and liver lipid levels after inhibitor treatment (LC-MS); set-up: species or system mouse (C57BL/6J); settings: Table 6, 30 mg/kg i.p., 1 h, single mouse; for Brain 2-AG (fold increase) / Brain AA (fold increase) / Brain AEA (fold increase) / Brain PEA (fold increase): vs vehicle
Method: This includes monitoring the effects of the inhibitors on the endogenous levels of the FAAH substrates anandamide (AEA, N-arachidonoyl ethanolamine), N-oleoyl ethanolamine (OEA), and N-palmitoyl ethanolamine (PEA), as well as the key lipids 2-arachidonoylglycerol (2-AG) and arachidonic acid (AA) that are not endogenous substrates for FAAH.
Inhibitors were prepared as a saline-emulphor emulsion for intraperitoneal (i.p.) administration by vortexing, sonicating, and gently heating neat compound directly into an 18:1:1 v/v/v solution of saline:ethanol:emulphor, or as a homogeneous PEG solution for oral administration (p.o.) by vortexing, sonicating, and gently heating neat compound directly into PEG300 (Fluka). Male C57BL/6J mice (<6 months old, 20-28 g) were administered inhibitors in saline-emulphor emulsion or an 18:1:1 v/v/v saline:emulphor:ethanol vehicle i.p. at a volume of 10 μL/g weight, or alternatively inhibitors in PEG300 or a PEG300 vehicle p.o. at a volume of 4 μL/g weight. After the indicated amount of time, mice were anesthetized with isofluorane and killed by decapitation. Total brains (˜400 mg) and a portion of the liver (˜100 mg) were removed and flash frozen in liquid N2.
Tissue was weighed and subsequently Dounce homogenized in 2:1:1 v/v/v CHCl3:MeOH:Tris pH 8.0 (8 mL) containing standards for lipids (50 pmol d4-PEA, 2 pmol d4-AEA, 0.5 nmol ds-2-AG, and 10 nmol pentadecanoic acid). The mixture was vortexed and then centrifuged (1,400×g, 10 min). The organic layer was removed, dried under a stream of N2, resolubilized in 2:1 v/v CHCl3:MeOH (120 μL), and 10 μL of this resolubilized lipid was injected onto an Agilent G6410B QQQ instrument. […] Mobile phase A was composed of a 95:5 v/v H2O:MeOH, and mobile phase B was composed of a 65:35:5 v/v/v i-PrOH:MeOH:H2O. 0.1% Formic acid or 0.1% ammonium hydroxide was included to assist in ion formation in positive and negative ionization mode, respectively. The flow rate for each run started at 0.1 mL/min with 0% B. At 5 min, the solvent was immediately changed to 60% B with a flow rate of 0.4 mL/min and increased linearly to 100% B over 10 min. […] MS analysis was performed with an electrospray ionization (ESI) source. […] For negative polarity, the analysis was performed in MS2 scan mode from 100-1000 m/z. The capillary was set to 4 kV, the fragmentor was set to 100 V, and the delta EMV was set to 0. Lipids were quantified by measuring the area under the peak in comparison to the standards.

[2] = test system: mice, acute thermal pain (tail flick at 52° C.); test: Mouse tail flick assay (52° C. warm water), acute thermal pain; assay type: in vivo, mouse (CD-1); settings: i.v. administration
Method: Concurrent with these studies, two prototypical inhibitors 12 and 14 were examined for antinociceptive activity in a preclinical model of acute thermal pain (tail flick at 52° C.) in mice alongside 2 and morphine (i.v. administration).
Male CD-1 (25-35 g, Charles River) mice were housed in groups of five in Plexiglas chambers with food and water available ad libitum. All animals were maintained on a 12 h light/dark cycle (lights on at 7:00 AM) in a temperature- and humidity-controlled animal colony. All tail-flick experiments were performed under an approved University of New England animal protocol in accordance with institutional guidelines and in accordance with the Guide for the Care and Use of Laboratory Animals as adopted and promulgated by the National Institutes of Health. Efficacy of the test compound was assessed using the 52° C. warm water tail-flick test. The latency to the first sign of a rapid tail-flick was taken as the behavioral endpoint. Each mouse was first tested for baseline latency by immersing its tail in the water and recording the time to response. Mice not responding within 5 sec were excluded from further testing. Mice were then administered the test compound and tested for antinociception at various time points afterwards. Antinociception was calculated by the following formula: % Antinociception=100×(test latency−control latency)/(10−control latency). A maximum score was assigned (100%) to animals not responding within 10 sec to avoid tissue damage.

[3] = biological target: T1, recombinant rat FAAH (rFAAH) (Rattus norvegicus, UniProt P97612); test: Enzyme assay: inhibition of purified recombinant rat FAAH, 14C-oleamide hydrolysis, Ki by Dixon plot; assay type: biochemical
T1 construct: The truncated rat FAAH (rFAAH) was expressed in E. coli and purified; made in house; host or cells: Escherichia coli
T1 sequence (P97612 30-579 limits assumed): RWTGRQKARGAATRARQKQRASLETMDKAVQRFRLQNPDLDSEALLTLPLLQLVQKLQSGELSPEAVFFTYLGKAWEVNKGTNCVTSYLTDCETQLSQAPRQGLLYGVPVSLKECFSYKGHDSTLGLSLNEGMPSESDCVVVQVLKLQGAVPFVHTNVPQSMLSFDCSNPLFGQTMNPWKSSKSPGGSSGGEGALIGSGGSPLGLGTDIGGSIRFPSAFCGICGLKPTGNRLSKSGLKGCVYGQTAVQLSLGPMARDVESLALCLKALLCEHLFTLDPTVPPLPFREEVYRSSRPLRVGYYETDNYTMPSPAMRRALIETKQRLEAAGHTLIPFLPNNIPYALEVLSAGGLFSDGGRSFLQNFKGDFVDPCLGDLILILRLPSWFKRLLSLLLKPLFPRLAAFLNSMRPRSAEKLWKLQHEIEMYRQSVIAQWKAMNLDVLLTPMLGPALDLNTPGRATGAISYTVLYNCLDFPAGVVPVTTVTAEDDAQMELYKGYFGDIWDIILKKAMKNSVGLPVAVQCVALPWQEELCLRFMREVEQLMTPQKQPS
Method: Enzyme assays were performed at 20-23° C. with purified recombinant rat FAAH expressed in Escherichia coli or with solubilized COS-7 membrane extracts from cells transiently transfected with human FAAH cDNA (where specifically indicated) in a buffer of 125 mM Tris/1 mM EDTA/0.2% glycerol/0.02% Triton X-100/0.4 mM Hepes, pH 9.0.
^14C-labeled oleamide was prepared from ^14C-labeled oleic acid. The truncated rat FAAH (rFAAH) was expressed in E. coli and purified. The purified recombinant rFAAH was used in the inhibition assays unless otherwise indicated. The full-length human FAAH (hFAAH) was expressed in COS-7 cells as described, and the lysate of hFAAH-transfected COS-7 cells was used in the inhibition assays where explicitly indicated.
The inhibition assays were performed as follows. […] The enzyme reaction was terminated by transferring 20 μL of the reaction mixture to 500 μL of 0.1 N HCl at three different time points. The ^14C-labeled oleamide (substrate) and oleic acid (product) were extracted with EtOAc and analyzed by TLC as detailed. The Ki of the inhibitor was calculated using a Dixon plot as described (standard deviations are provided in the Supporting Information tables).

[4] = Table 2, (R)-enantiomer, 1,2,3,4-tetrahydronaphthalene C2 acyl side chain
[5] = Table 4, (R)-enantiomer, additional FAAH inhibitors
[6] = Table 2, (S)-enantiomer, 1,2,3,4-tetrahydronaphthalene C2 acyl side chain

In the case of `O=C(c1ncc(-c2ccccn2)o1)C1Cc2ccc(Oc3ccccc3)cc2C1` (centres unmarked) [Compound 27, (5-Phenoxyindan-2-yl)(5-(pyridin-2-yl)oxazol-2-yl)methanone], the “Brain 2-AG” value [1] is reported as 11 pmol/g, the “Brain AA” value [1] is reported as 190 pmol/g and the “Brain AEA” value [1] is reported as 24 pmol/g. The “Brain PEA” value [1] was 800 pmol/g, the “Brain 2-AG (fold increase)” value [1] was 0.8 fold increase and the “Brain AA (fold increase)” value [1] was 0.9 fold increase. For the same compound, the “Brain AEA (fold increase)” value [1] was 3.0 fold increase and the “Brain PEA (fold increase)” value [1] was 7.4 fold increase.

For `CN1CC[C@]23c4c5ccc(O)c4O[C@H]2[C@@H](O)C=C[C@H]3[C@H]1C5` [morphine, reference compound], the “duration of antinociceptive effect” value [2] was 150 min.

For `O=C(O)c1cccc(-c2cnc(C(=O)C3Cc4ccc(Oc5ccccc5)cc4C3)o2)n1` (centres unmarked) [Compound 29, 6-(2-(5-Phenoxyindane-2-carbonyl)oxazol-5-yl)picolinic acid], the “Brain 2-AG” value [1] was 12 pmol/g, the “Brain AA” value [1] was 172 pmol/g and the “Brain AEA” value [1] was 8 pmol/g. For the same compound, the “Brain PEA” value [1] was 131 pmol/g, the “Brain 2-AG (fold increase)” value [1] was 0.9 fold increase and the “Brain AA (fold increase)” value [1] was 0.8 fold increase. For the same compound, the “Brain AEA (fold increase)” value [1] was 1.0 fold increase and the “Brain PEA (fold increase)” value [1] was 1.2 fold increase.

`O=C(O)c1cccc(-c2cnc(C(=O)C3CCc4cc(-c5ccccc5)ccc4C3)o2)n1` (single isomer, unassigned) [(R)-8, 6-(2-(6-Phenyl-1,2,3,4-tetrahydronaphthalene-2-carbonyl)oxazol-5-yl)picolinic acid] was tested, and the Ki [3, 4] was 500 nM.

With `COC(=O)c1nnc(C(=O)C2CCc3cc(Oc4ccccc4)ccc3C2)o1` (single isomer, unassigned) [(R)-35, Methyl 5-(6-Phenoxy-1,2,3,4-tetrahydronaphthalene-2-carbonyl)-[1,3,4]oxadiazole-2-carboxylate] the Ki [3, 5] was 1.6 nM.

`COC(=O)c1cccc(-c2cnc(C(=O)C3CCc4cc(-c5ccccc5)ccc4C3)o2)n1` (single isomer, unassigned) [(R)-7, Methyl 6-(2-(6-Phenyl-1,2,3,4-tetrahydronaphthalene-2-carbonyl)oxazol-5-yl)picolinate] showed a Ki [3, 4] of 700 nM.

In the case of `COC(=O)c1cccc(-c2cnc(C(=O)C3Cc4ccc(-c5ccccc5)cc4C3)o2)n1` (racemic) [Compound 24, Methyl 6-[2-(5-Phenylindane-2-carbonyl)oxazol-5-yl]pyridine-2-carboxylate], the Ki ([3]; Table 3, racemate (enantiomers not separable), indane C2 acyl side chain) is reported as 6.2 nM.

With `O=C(c1ncco1)C1CCc2cc(Oc3ccccc3)ccc2C1` (single isomer, unassigned) [(R)-9, Oxazol-2-yl(6-phenoxy-1,2,3,4-tetrahydronaphthalen-2-yl)methanone] the Ki [3, 4] was 410 nM.

In the case of `O=C(c1ncc(I)o1)C1CCc2cc(OCc3ccccc3)ccc2C1` (centres unmarked) [Compound 21, (6-(Benzyloxy)-1,2,3,4-tetrahydronaphthalen-2-yl)(5-iodooxazol-2-yl)methanone], the “potency of more active (S)-enantiomer over (R)-enantiomer” value ([3]; ratio of FAAH inhibition between enantiomers) is reported as “ca. 200 fold”.

For `O=C(c1ncc(-c2ccccn2)o1)C1CCc2ccccc2C1` (single isomer, unassigned) [(R)-38, (5-(Pyridin-2-yl)oxazol-2-yl)(1,2,3,4-tetrahydronaphthalen-2-yl)methanone], the Ki [3, 5] was 3200 nM.

`O=C(c1ncc(-c2ccccn2)o1)C1Cc2ccc(OCc3ccccc3)cc2C1` (single isomer, unassigned) [(S)-31, (5-(Benzyloxy)indan-2-yl)(5-(pyridin-2-yl)oxazol-2-yl)methanone] was tested, and the Ki ([3]; Table 3, tentatively assigned (S)-enantiomer, indane C2 acyl side chain) was 1.4 nM.

Work on `O=C(c1ncc(-c2ccccn2)o1)C1CCc2cc(Oc3ccccc3)ccc2C1` (single isomer, unassigned) [(S)-12, (6-Phenoxy-1,2,3,4-tetrahydronaphthalen-2-yl)(5-(pyridin-2-yl)oxazol-2-yl)methanone] yielded a Ki [3, 6] of 4.4 nM.

`COC(=O)c1nnc(C(=O)C2CCc3cc(Oc4ccccc4)ccc3C2)o1` (single isomer, unassigned) [(S)-35, Methyl 5-(6-Phenoxy-1,2,3,4-tetrahydronaphthalene-2-carbonyl)-[1,3,4]oxadiazole-2-carboxylate] was tested, and the Ki ([3]; Table 4, (S)-enantiomer, additional FAAH inhibitors) was 1.5 nM.

`O=C(O)c1cccc(-c2cnc(C(=O)C3CCc4cc(Oc5ccccc5)ccc4C3)o2)n1` (single isomer, unassigned) [(S)-14, 6-(2-(6-Phenoxy-1,2,3,4-tetrahydronaphthalene-2-carbonyl)oxazol-5-yl)picolinic acid] was tested, and the Ki [3, 6] was 25 nM.

With `O=C(c1nnc(-c2ccccn2)o1)C1CCc2cc(Oc3ccccc3)ccc2C1` (single isomer, unassigned) [(R)-36, (6-Phenoxy-1,2,3,4-tetrahydronaphthalen-2-yl)(5-(pyridin-2-yl)-1,3,4-oxadiazol-2-yl)methanone] the Ki [3, 5] was 6.3 nM.
